Source: patent US20230045151A1, “COMPOSITIONS AND METHODS” (MONASH UNIVERSITY, priority 2020, published 2023)
Counter-ions that a name gives are not always drawn.

Experiments:
CCL20 = test: In vitro stimulation of lung cells enriched for airway epithelial cells, chemokine release; type: cell-based, mouse; details: 24 hours; for CCL20 production by lung cells stimulated with LPS: EGF 100 ng/ml, amphiregulin 500 ng/ml or gefitinib 0.16 μM, lower efficacy than PCS
Protocol: Mice were euthanized by CO2 inhalation, instilled with a 1.5 ml dispase II (Sigma-Aldrich) intratracheally, followed by intratracheal injection of 0.5 ml 1% low melting point agarose (Sigma-Aldrich). Lungs were then covered with ice for 3 min, removed and placed in a 15 ml falcon tube with 2 ml of dispase II, and incubated for 45 min with gentle agitation. This was followed by mechanical disruption of the lung lobes using forceps in DMEM supplemented with DNAse I (Sigma-Aldrich, 1U/ml), filtration through 70- and 40-μM cell strainers (Falcon®, Corning) and lysis of erythrocytes using red blood cell lysing buffer (BD Biosciences). Lung cells were plated in a flat-bottom 24-well or 96-well plates (Costar) coated with fibronectin (Sigma-Aldrich, 10 μg/ml) at the density of 1 mln or 0.2 mln cells/well, respectively.
5% CO2, after which the supernatant was collected and stored at −20° C. until further use.

[1] = mice with normal renal function, cited from earlier work
[2] = tested on: mice exposed intranasally to ovalbumin/LPS; test: OVA/LPS animal model of pulmonary type 1 inflammation; type: in vivo, mouse; details: PCS intravenous on day -1 and day 11
Protocol: Results are from one experiment (n=4 per group, p=0.0335). All data are presented as mean values+/−SEM. *p≤0.05. Statistical significance was evaluated with Mann-Whitney test.
Mice were anaesthetized by the inhalation of 4% isoflurane in oxygen for 3-5 min. 100 μg Ovalbumin (Invivogen, cat nr vac-pova) was mixed with 10 μg LPS from E. coli (Sigma-Aldrich, cat nr L4391) and administered intranasally per mouse on days 0, 11, 12 and 13. Mice were sacrificed with the lethal dose of pentobarbital on day 14.

[3] = tested on: epithelial cells, dendritic cells, macrophages and bone marrow precursors; test: Effect of PCS on cells (deleteriousness); type: cell-based
[4] = mouse, in vivo
Protocol: Concentrations of cystatin, clusterin, lipocalin-2 and osteopontin in serum of vehicle or PCStreated mice were determined with MILLIPLEX MAP Mouse Kidney Injury Magnetic Bead Panel 2—Toxicity Multiplex Assay (Merck) according to manufacturer's instructions.

[5] = tested on: C57BL6/J mice exposed intranasally to house dust mite extract (HDM); test: HDM animal model of allergic airway inflammation; type: in vivo, mouse
Protocol: Mice received water as a control or L-tyrosine (reagent grade, ≥98% Sigma-Aldrich, St. Louis, Mo.) resuspended in drinking water under sterile conditions at the concentration of 100 mg/kg/day or 500 mg/kg/day (based on the assumption of a mouse consuming 4 ml of water daily). All mice received the treatment 2 weeks prior and throughout the experiment. […] Control mice received 200 μl of saline. […]. For experiments employing antibiotic treatment, 3-week old mice were treated with a combination enrofloxacin (10 mg/kg/day) and amoxicillin with clavulanic acid (1 mg/kg/day) for one week, followed by one week of only amoxicillin with clavulanic acid (1 mg/kg/day). Then, mice were then put on L-tyrosine diet in drinking water for two weeks followed by HDM exposure as before. During this time, mice were maintained on antibiotic treatment with amoxicillin/clavulanic acid until end of experiment.
Mice were anaesthetised by the inhalation of 4% isoflurane in oxygen for 3-5 minutes. 20 μg of protein content of crude house dust mite extract (HDM) (Greer Laboratories Inc., Lenoir, N.C.) in 20 μl of sterile phosphate-buffered saline (PBS) (Gibco™) was applied intranasally on days 0, 11, 12 and 13. Mice were humanely sacrificed with the lethal dose of pentobarbital (Streuli Pharma AG, Uznach, Switzerland) on day 14.
Bronchoalveolar lavage fluid (BALF) was collected by flushing airways with 0.5 ml PBS supplemented with 0.2% bovine serum albumin (Sigma-Aldrich, St. Louis, Mo.). Total cell number was determined with Coulter Counter (IG Instrumenten-Gesellschaft AG, Basel, Switzerland) while differential cell staining performed on cytospins stained with Diff-Quik solution (Dade Behring, Siemens Healthcare Diagnostics, Deerfield, Ill.). Percentages of neutrophils, macrophages, lymphocytes and eosinophils were assessed by counting 200 cells per sample.
Concentrations of interleukin-4, -5, -13, -17 and IFN-γ in culture supernatants were analysed with mouse Ready-Set-Go!™ ELISA kits (eBioscience™, San Diego, Calif.) according to manufacturer's instructions. To measure the levels of HDM-specific IgG1 and IgE in plasma, half area 96-well plates (Corning) were coated with HDM (10 μg in PBS) overnight at 4° C., followed by the incubation of samples for 2 hours at RT, and the addition of alkaline-phophatase-conjugated goat anti-mouse IgE or IgG1 (both from SouthernBiotech, Birmingham, Ala.; diluted at 1 μg ml-1 in PBS 0.2% BSA) for 2 hours at RT. 4-nitrophenyl phosphate sodium salt hexahydrate (pNPP) (Sigma) was used as a substrate, and the colorimetric reaction was read at 405 nm on the Synergy H1 microplate reader (Biotek, Luzern, Switzerland). To measure the levels of total IgA and IgM as well as hen egg lysozyme (HEL)-specific IgA and IgM in mouse faeces, faecal pellets were homogenized in 0.8 ml cold PBS, centrifuged at 400 g for 5 minutes to remove large debris, filtered through 40 μm cell strainer and centrifuged at 8000 g for 10 minutes to pellet bacteria. The supernatant was collected and loaded for 2 hours at RT on 96-well half area plates coated a day before at 4° C. with anti-IgA (Southern Biotech; 2 μg ml-1), anti-IgM (SouthernBiotech; 2 μg ml-1) or HEL protein (Sigma-Aldrich; 10 μg/ml). This step was followed by the addition of alkalinephophatase-conjugated goat anti-mouse IgA or IgM (both at 1 μg ml-1 in PBS 0.2% BSA) for 2 hours at RT. 4-nitrophenyl phosphate sodium salt hexahydrate (pNPP) (Sigma) was used as a substrate, and the colorimetric reaction was read at 405 nm as before.
Mediastinal lymph nodes were filtered through a 40 μm cell strainer, washed with PBS supplemented with 1% fetal bovine serum and 2 mM EDTA (Invitrogen) (MACS buffer). Lungs were finely cut with scissors, digested with Collagenase IV (Gibco™) in Iscove's modified Dulbecco's medium (IMDM, Gibco™) for 50 min at 37° C. and processed as the lymph nodes.

[6] = lung cells from naive mice, HDM 100 μg/ml, PCS 100 μg/ml
[7] = PCS intravenous 40 mg/kg, lymph node cells restimulated with HDM for 4 days

Compound	HDM-induced production of CCL20 (CCL20; [6])	HDM-induced secretion of other chemokines (CCL20; [6])	LPS-induced CCL20 (CCL20; lung cells from naive mice, LPS 10 μg/ml, PCS 100 μg/ml)	time to clearance from the blood ([1]; intraperitoneal or oral PCS)	accumulation on chronic administration ([1]; twice a day for 4 weeks)	infiltration of CD4+ T cells to the airways ([2]; ovalbumin/LPS)	infiltration of CD8+ T cells to the airways ([2]; ovalbumin/LPS)	infiltration of neutrophils to the airways ([2]; ovalbumin/LPS intranasal days 0, 11, 12, 13)	deleterious effect on epithelial cells, dendritic cells, macrophages and bone marrow precursors [3]	elevation of major kidney toxicity markers [4]	FoxP3+ Tregs in the lungs ([5]; PCS intravenous 40 mg/kg)	numbers of lung CD4+ T cells ([5]; PCS intravenous 40 mg/kg)	recruitment of neutrophils ([5]; PCS intravenous 40 mg/kg)	infiltration of DCs into the lungs ([5]; PCS intravenous 40 mg/kg, vs saline)	production of IL-5 by restimulated mediastinal lymph nodes [5, 7]	production of IL-13 by restimulated mediastinal lymph nodes [5, 7]	eosinophilia in the BALF ([5]; PCS intravenous (retro-orbital) 40 mg/kg on day -1 and day 11, vs saline, HDM days 0, 11, 12, 13)	CCL20 production by lung cells stimulated with LPS (CCL20; LPS 10 μg/ml)
Cc1ccc(OS(=O)(=O)O)cc1 [PCS, p-cresol sulfate]	completely abrogated	did not have an effect	inhibited	≤ 4 h	does not lead to its accumulation	inhibited	inhibited	inhibited	not deleterious	not detected	no major alterations	no major alterations	reduced	decreased	reduced	reduced	ameliorated	–
EGF: high affinity EGFR ligand, Epidermal Growth Factor	–	–	–	–	–	–	–	–	–	–	–	–	–	–	–	–	–	selective reduction
COc1cc2ncnc(Nc3ccc(F)c(Cl)c3)c2cc1OCCCN1CCOCC1 [gefitinib, reference compound]	–	–	–	–	–	–	–	–	–	–	–	–	–	–	–	–	–	selective reduction
